As a reminder, the IC50 is the midpoint of a concentration-inhibition curve.

Some results are limits rather than exact numbers.

Sequence of phosphor-Axl (P30530 26-894): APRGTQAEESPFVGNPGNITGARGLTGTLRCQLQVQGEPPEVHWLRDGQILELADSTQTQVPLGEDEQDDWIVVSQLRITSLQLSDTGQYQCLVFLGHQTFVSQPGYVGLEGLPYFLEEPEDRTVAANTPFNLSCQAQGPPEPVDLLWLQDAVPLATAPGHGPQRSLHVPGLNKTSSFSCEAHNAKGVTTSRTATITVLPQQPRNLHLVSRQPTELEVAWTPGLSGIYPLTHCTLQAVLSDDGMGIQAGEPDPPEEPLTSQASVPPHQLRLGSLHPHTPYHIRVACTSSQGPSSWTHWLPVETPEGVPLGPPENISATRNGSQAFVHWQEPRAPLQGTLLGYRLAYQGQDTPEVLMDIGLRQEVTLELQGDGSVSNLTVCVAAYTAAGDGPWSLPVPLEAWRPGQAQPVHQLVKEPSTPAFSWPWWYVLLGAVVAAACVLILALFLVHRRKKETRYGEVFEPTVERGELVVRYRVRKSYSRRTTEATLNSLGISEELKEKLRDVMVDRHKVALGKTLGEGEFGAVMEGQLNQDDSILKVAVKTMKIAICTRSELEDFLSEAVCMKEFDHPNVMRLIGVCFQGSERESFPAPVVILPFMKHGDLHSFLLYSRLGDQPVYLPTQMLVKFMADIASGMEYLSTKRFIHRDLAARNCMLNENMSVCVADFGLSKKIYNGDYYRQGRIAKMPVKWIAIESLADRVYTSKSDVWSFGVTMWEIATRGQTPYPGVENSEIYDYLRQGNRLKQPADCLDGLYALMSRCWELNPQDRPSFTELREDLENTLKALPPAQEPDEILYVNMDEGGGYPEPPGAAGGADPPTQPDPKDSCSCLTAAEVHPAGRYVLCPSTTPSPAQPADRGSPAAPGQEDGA
Sequence of Tyro3 (Q06418 41-890): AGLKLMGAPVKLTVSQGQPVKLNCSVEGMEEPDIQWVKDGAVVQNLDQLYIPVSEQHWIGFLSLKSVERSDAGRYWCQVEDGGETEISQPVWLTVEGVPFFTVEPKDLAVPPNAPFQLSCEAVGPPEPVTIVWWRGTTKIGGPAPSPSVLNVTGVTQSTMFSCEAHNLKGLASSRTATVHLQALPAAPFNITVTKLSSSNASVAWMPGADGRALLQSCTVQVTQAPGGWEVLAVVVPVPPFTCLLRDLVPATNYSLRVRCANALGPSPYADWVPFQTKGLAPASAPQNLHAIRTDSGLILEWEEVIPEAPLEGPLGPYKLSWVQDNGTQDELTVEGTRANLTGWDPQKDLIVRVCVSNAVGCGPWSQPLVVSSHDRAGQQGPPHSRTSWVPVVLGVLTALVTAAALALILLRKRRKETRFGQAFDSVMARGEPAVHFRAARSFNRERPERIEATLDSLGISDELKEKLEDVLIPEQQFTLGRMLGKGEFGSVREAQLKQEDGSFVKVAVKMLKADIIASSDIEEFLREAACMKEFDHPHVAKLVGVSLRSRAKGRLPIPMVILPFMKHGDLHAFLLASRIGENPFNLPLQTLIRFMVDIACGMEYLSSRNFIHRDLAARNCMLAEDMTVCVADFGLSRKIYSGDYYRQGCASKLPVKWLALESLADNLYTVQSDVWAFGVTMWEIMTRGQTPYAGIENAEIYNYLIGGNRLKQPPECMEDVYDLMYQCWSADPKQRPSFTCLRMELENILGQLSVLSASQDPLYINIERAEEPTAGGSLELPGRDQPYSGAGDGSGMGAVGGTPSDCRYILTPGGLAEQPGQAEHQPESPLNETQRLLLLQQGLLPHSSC

The target in one experiment is phosphor-Axl (Homo sapiens (Human), UniProt P30530). In words: TAM Enzymatic Assay (HTRF), Axl. The class given is biochemical. The following applies: recombinant autophosphorylated Axl, 60 min, room temperature. The procedure:
Autophosphorylation of Axl was carried out by incubating the recombinant Axl protein (Life Technologies, PV4275) in buffer containing 50 mM Tris, pH7.5, 0.2 mg/ml Axl, 5 mM ATP, 20 mM MgCl2 and 2 mM DTT at room temperature for 1 hour.
(§1) The kinase assay buffer contained 50 mM HEPES, pH7.5, 10 mM MgCl2, 1 mM EGTA, 0.01% NP-40 and 2 mM DTT. 0.1 ul test compounds dissolved in DMSO were transferred from compound plates to white 384-well assay plates (Greiner […] plates). […] 4 ul enzyme solution (or assay buffer for the enzyme blank) was added to the appropriate wells in each plate, and then 4 ul/well substrate solution was added to initiate the reaction. The plate was protected from light and incubated at room temperature for 60 min. […] The plate was incubated for 1 h at room temperature, and HTRF (homogenous time resolved fluorescence) signal was measured on a PHERAstar FS plate reader (BMG labtech). Percentage of inhibition was calculated for each concentration and IC50 value was generated from curve fitting with GraphPad Prism software.
Take `CC(C)C(=O)N1CCC(c2cc(-c3ccc(NC(=O)c4cn(C(C)C)c(=O)n(-c5cccc(F)c5)c4=O)cc3)c3c(N)ncnn23)CC1` [Example 71, N-(4-(4-Amino-7-(1-isobutyrylpiperidin-4-yl)pyrrolo[1,2-f][1,2,4]triazin-5-yl)phenyl)-3-(3-fluorophenyl)-1-isopropyl-2,4-dioxo-1,2,3,4-tetrahydropyrimidine-5-carboxamide]: the IC50 was no more than 5 nM. Regarding `CC(C)n1cc(C(=O)Nc2ccc(-c3cc(CN4CCOCC4)n4ncnc(N)c34)cc2)c(=O)n(-c2ccccc2)c1=O` [Example 95, N-(4-(4-Amino-7-(morpholinomethyl)pyrrolo[1,2-f][1,2,4]triazin-5-yl)phenyl)-1-isopropyl-2,4-dioxo-3-phenyl-1,2,3,4-tetrahydropyrimidine-5-carboxamide], the half-inhibitory concentration (IC50) was no more than 5 nM. `Cc1cc(NC(=O)c2cn(C(C)C)c(=O)n(-c3ccccc3)c2=O)ccc1-c1cc(C2CCN(C(=O)C(C)C)CC2)n2ncnc(N)c12` [Example 77, N-(4-(4-Amino-7-(1-isobutyrylpiperidin-4-yl)pyrrolo[1,2-f][1,2,4]triazin-5-yl)-3-methylphenyl)-1-isopropyl-2,4-dioxo-3-phenyl-1,2,3,4-tetrahydropyrimidine-5-carboxamide]: the half-inhibitory concentration (IC50) was no more than 5 nM. Regarding `Cc1c(-c2ccnn2C)c(=O)c(C(=O)Nc2ccc(-c3cc(C4CCN(C(=O)C(C)C)CC4)n4ncnc(N)c34)cc2)cn1C(C)C` [Example 97, N-(4-(4-Amino-7-(1-isobutyrylpiperidin-4-yl)pyrrolo[2,1-f][1,2,4]triazin-5-yl)phenyl)-1-isopropyl-6-methyl-5-(1-methyl-1H-pyrazol-5-yl)-4-oxo-1,4-dihydropyridine-3-carboxamide], the IC50 was no more than 5 nM. As to `Nc1ncnn2c(C3CCN(CCO)CC3)cc(-c3ccc(NC(=O)c4cc5c(n(-c6ccc(F)cc6)c4=O)CCCC5=O)cc3F)c12` [Example 60, N-(4-{4-Amino-7-[1-(2-hydroxyethyl)piperidin-4-yl]pyrrolo[2,1-f][1,2,4]triazin-5-yl}-3-fluorophenyl)-1-(4-fluorophenyl)-2,5-dioxo-1,2,5,6,7,8-hexahydroquinoline-3-carboxamide], the IC50 is no more than 5 nM. As for `Cc1ccc(-c2ccc(C(=O)Nc3ccc(-c4cc(C5CCN(C(=O)C(C)C)CC5)n5ncnc(N)c45)cc3)c(=O)n2-c2ccccc2)cn1` [Example 105, N-(4-(4-Amino-7-(1-isobutyrylpiperidin-4-yl)pyrrolo[2,1-f][1,2,4]triazin-5-yl)phenyl)-6′-methyl-6-oxo-1-phenyl-1,6-dihydro-[2,3′-bipyridine]-5-carboxamide], the IC50 was no more than 5 nM. Still for that read-out and setting: the figure for `CCN(C)C(=O)N1CCC(c2cc(-c3ccc(NC(=O)c4cn(C(C)C)c(=O)n(-c5ccc(F)cc5)c4=O)cc3)c3c(N)ncnn23)CC1` [Example 66, N-(4-(4-Amino-7-(1-(ethyl(methyl)carbamoyl)piperidin-4-yl)pyrrolo[1,2-f][1,2,4]triazin-5-yl)phenyl)-3-(4-fluorophenyl)-1-isopropyl-2,4-dioxo-1,2,3,4-tetrahydropyrimidine-5-carboxamide] is no more than 5 nM.

For another experiment, the target named is Tyro3 (Homo sapiens (Human), UniProt Q06418). The experiment is described as follows: TAM Enzymatic Assay (HTRF), Tyro3. The experiment is classed as biochemical. To be noted: Tyro3, 60 min, room temperature. The procedure:
as §1
(Time-resolved FRET reads energy transfer from a long-lived donor to a nearby acceptor.)
`COC(=O)N1CCC(c2cc(-c3ccc(NC(=O)c4cccn(-c5ccccc5)c4=O)cc3)c3c(N)ncnn23)CC1` [Example 36, Methyl 4-[4-amino-5-(4-{[(2-oxo-1-phenyl-1,2-dihydropyridin-3-yl)carbonyl]amino}phenyl)pyrrolo[2,1-f][1,2,4]triazin-7-yl]piperidine-1-carboxylate] gave a half-inhibitory concentration (IC50) greater than 100 nM. `CC(C)n1cc(C(=O)Nc2ccc(-c3cc(CN4CCOCC4)n4ncnc(N)c34)cc2)c(=O)n(-c2ccccc2)c1=O` [Example 95, N-(4-(4-Amino-7-(morpholinomethyl)pyrrolo[1,2-f][1,2,4]triazin-5-yl)phenyl)-1-isopropyl-2,4-dioxo-3-phenyl-1,2,3,4-tetrahydropyrimidine-5-carboxamide] came in with a 50% inhibitory concentration (IC50) greater than 100 nM. As to `Cc1cc(NC(=O)c2cn(C(C)C)c(=O)n(-c3ccccc3)c2=O)ccc1-c1cc(C2CCN(C(=O)C(C)C)CC2)n2ncnc(N)c12` [Example 77, N-(4-(4-Amino-7-(1-isobutyrylpiperidin-4-yl)pyrrolo[1,2-f][1,2,4]triazin-5-yl)-3-methylphenyl)-1-isopropyl-2,4-dioxo-3-phenyl-1,2,3,4-tetrahydropyrimidine-5-carboxamide], the IC50 is greater than 100 nM. For `Cc1cc(-c2ccc(NC(=O)c3cccn(-c4ccccc4)c3=O)cc2F)c2c(N)ncnn12` [Example 10, N-[4-(4-Amino-7-methylpyrrolo[2,1-f][1,2,4]triazin-5-yl)-3-fluorophenyl]-2-oxo-1-phenyl-1,2-dihydropyridine-3-carboxamide], the IC50 is greater than 100 nM. The same measure, in the same setting: to `CC(C)C(=O)N1CCC(c2cc(-c3ccc(NC(=O)c4cn(C(C)C)c(=O)n(C5CCCCC5)c4=O)cc3)c3c(N)ncnn23)CC1` [Example 90, N-(4-(4-Amino-7-(1-isobutyrylpiperidin-4-yl)pyrrolo[2,1-f][1,2,4]triazin-5-yl)phenyl)-3-cyclohexyl-1-isopropyl-2,4-dioxo-1,2,3,4-tetrahydropyrimidine-5-carboxamide] belongs greater than 100 nM. `CCc1cc(-c2ccc(NC(=O)c3cccn([C@@H](CO)c4ccccc4)c3=O)cc2)c2c(N)ncnn12` [Example 2, N-[4-(4-Amino-7-ethylpyrrolo[2,1-f][1,2,4]triazin-5-yl)phenyl]-1-[(1R)-2-hydroxy-1-phenylethyl]-2-oxo-1,2-dihydropyridine-3-carboxamide] came in with a 50% inhibitory concentration (IC50) greater than 100 nM. With `Nc1ncnn2c(C3CCOCC3)cc(-c3ccc(NC(=O)c4cccn(-c5ccccc5)c4=O)cc3)c12` [Example 13, N-{4-[4-Amino-7-(tetrahydro-2H-pyran-4-yl)pyrrolo[2,1-f][1,2,4]triazin-5-yl]phenyl}-2-oxo-1-phenyl-1,2-dihydropyridine-3-carboxamide], the 50% inhibitory concentration (IC50) is greater than 100 nM.

Consider `CCc1cc(-c2ccc(NC(=O)c3cc4c(n(-c5ccc(F)cc5)c3=O)CCCC4=O)cc2)c2c(N)ncnn12` [Example 1, N-[4-(4-Amino-7-ethylpyrrolo[2,1-f][1,2,4]triazin-5-yl)phenyl]-1-(4-fluorophenyl)-2,5-dioxo-1,2,5,6,7,8-hexahydroquinoline-3-carboxamide], for which the IC50 was greater than 100 nM. Same read-out and setting: to `CN1CCC(c2cc(-c3ccc(NC(=O)c4cccn(-c5ccccc5)c4=O)cc3)c3c(N)ncnn23)CC1` [Example 20, N-{4-[4-Amino-7-(1-methylpiperidin-4-yl)pyrrolo[2,1-f][1,2,4]triazin-5-yl]phenyl}-2-oxo-1-phenyl-1,2-dihydropyridine-3-carboxamide] belongs greater than 100 nM; to `CCN(C)C(=O)N1CCC(c2cc(-c3ccc(NC(=O)c4cccn(-c5ccc(F)cc5)c4=O)cc3)c3c(N)ncnn23)CC1` [Example 56, N-{4-[4-Amino-7-(1-{[ethyl(methyl)amino]carbonyl}piperidin-4-yl)pyrrolo[2,1-f][1,2,4]triazin-5-yl]phenyl}-1-(4-fluorophenyl)-2-oxo-1,2-dihydropyridine-3-carboxamide], greater than 100 nM; to `CC(C)n1cc(C(=O)Nc2ccc(-c3cc(C4CCN(C5CCN(C)C5=O)CC4)n4ncnc(N)c34)cc2)c(=O)n(-c2ccccc2)c1=O` (racemic) [Example 82, N-(4-(4-Amino-7-(1-(1-methyl-2-oxopyrrolidin-3-yl)piperidin-4-yl)pyrrolo[1,2-f][1,2,4]triazin-5-yl)phenyl)-1-isopropyl-2,4-dioxo-3-phenyl-1,2,3,4-tetrahydropyrimidine-5-carboxamide], 10 to 100 nM. Same read-out and setting: to `Cc1cc(-c2ccc(NC(=O)c3cccn(-c4ccccc4)c3=O)cc2)c2c(N)ncnn12` [Example 8, N-[4-(4-Amino-7-methylpyrrolo[2,1-f][1,2,4]triazin-5-yl)phenyl]-2-oxo-1-phenyl-1,2-dihydropyridine-3-carboxamide] belongs greater than 100 nM. In the case of `CS(=O)(=O)N1CCC(c2cc(-c3ccc(NC(=O)c4cccn(-c5ccccc5)c4=O)cc3)c3c(N)ncnn23)CC1` [Example 40, N-(4-{4-Amino-7-[1-(methylsulfonyl)piperidin-4-yl]pyrrolo[2,1-f][1,2,4]triazin-5-yl}phenyl)-2-oxo-1-phenyl-1,2-dihydropyridine-3-carboxamide], the IC50 was greater than 100 nM. Take `Cc1nn(C)c(C)c1-c1cc(-c2ccc(NC(=O)c3cn(C(C)C)c(=O)n(-c4cccc(F)c4)c3=O)cc2)c2c(N)ncnn12` [Example 84, N-(4-(4-Amino-7-(1,3,5-trimethyl-1H-pyrazol-4-yl)pyrrolo[1,2-f][1,2,4]triazin-5-yl)phenyl)-3-(3-fluorophenyl)-1-isopropyl-2,4-dioxo-1,2,3,4-tetrahydropyrimidine-5-carboxamide]: the IC50 is greater than 100 nM. On to `COc1ccn(-c2ccccc2)c(=O)c1C(=O)Nc1ccc(-c2c(Br)c(C3CCN(C(=O)C(C)C)CC3)n3ncnc(N)c23)cc1` [Example 100, N-(4-(4-Amino-6-bromo-7-(1-isobutyrylpiperidin-4-yl)pyrrolo[1,2-f][1,2,4]triazin-5-yl)phenyl)-4-methoxy-2-oxo-1-phenyl-1,2-dihydropyridine-3-carboxamide], for which the IC50 was greater than 100 nM.

For `Cc1c(C(N)=O)cc(C(=O)Nc2ccc(-c3cc(C4CCN(C(=O)C(C)C)CC4)n4ncnc(N)c34)cc2)c(=O)n1-c1ccccc1` [Example 111a, N^3-(4-(4-Amino-7-(1-isobutyrylpiperidin-4-yl)pyrrolo[2,1-f][1,2,4]triazin-5-yl)phenyl)-6-methyl-2-oxo-1-phenyl-1,2-dihydropyridine-3,5-dicarboxamide], the half-maximal inhibitory concentration (IC50) was greater than 100 nM.

`CC(C)n1cc(C(=O)Nc2ccc(-c3cc(C(=O)N(C)C)n4ncnc(N)c34)cc2)c(=O)n(-c2cccc(F)c2)c1=O` [Example 86, 4-Amino-5-(4-(3-(3-fluorophenyl)-1-isopropyl-2,4-dioxo-1,2,3,4-tetrahydropyrimidine-5-carboxamido)phenyl)-N,N-dimethylpyrrolo[2,1-f][1,2,4]triazine-7-carboxamide] yielded an IC50 greater than 100 nM. `Cc1cc(-c2ccc(NC(=O)c3cccn(-c4ccc(F)cc4)c3=O)cc2F)c2c(N)ncnn12` [Example 11, N-[4-(4-Amino-7-methylpyrrolo[2,1-f][1,2,4]triazin-5-yl)-3-fluorophenyl]-1-(4-fluorophenyl)-2-oxo-1,2-dihydropyridine-3-carboxamide] showed an IC50 greater than 100 nM.

(Values after patent publication US9981975B2, “Pyrrolotriazine compounds as tam inhibitors” (Incyte Corporation, priority 2016, dated 2018).)
